This note sets out measurements from patent US20050192261A1, “Methods and reagents for the treatment of immunoinflammatory disorders” (priority 2003, published 2005).

For the test, the system named is TNFα secretion in white blood cells from human buffy coat stimulated with phorbol 12-myristate 13-acetate and ionomycin. As to the kind of experiment: TNFα secretion assay. To be noted: for inhibition at 0.2 µM: read-out: percent inhibition of TNFα secretion, Amoxapine 0.2 μM; for inhibition at 0.4 µM: read-out: percent inhibition of TNFα secretion, Amoxapine 0.4 μM; for inhibition at 0.8 µM: read-out: percent inhibition of TNFα secretion, Amoxapine 0.8 μM; for inhibition at 13 µM: read-out: percent inhibition of TNFα secretion, Amoxapine 13 μM; for inhibition at 25 µM: read-out: percent inhibition of TNFα secretion, Amoxapine 25 μM; for inhibition at 0.3 µM: read-out: % inhibition of TNFα secretion, Dipyridamole 0.3 μM; for inhibition at 19 µM: read-out: % inhibition of TNFα secretion, Dipyridamole 19 μM.

Where [1] appears, read: Homo sapiens, Bromodiphenhydramine HCl μM: 0/0.21/0.43/0.85/1.7/3.4/6.8/14/27.
[2] abbreviates: Homo sapiens, Cyproheptadine HCl μM: 0/0.24/0.48/0.96/1.9/3.9/7.7/15/31.
Where [3] appears, read: Homo sapiens, Loratadine 0/0.2/0.41/0.82/1.6/3.3/6.5/13/26 μM.
The mark [4] stands for this setting: Homo sapiens, Thiethylperazine Maleate μM: 0/0.2/0.39/0.78/1.6/3.1/6.3/13/25.
The mark [5] stands for this setting: Homo sapiens, Bromodiphenhydramine HCl μM r5-r13: 0,0.21,0.43,0.85,1.7,3.4,6.8,14,27.
The mark [6] stands for this setting: Homo sapiens, Cyproheptadine HCl μM r5-r13: 0,0.24,0.48,0.96,1.9,3.9,7.7,15,31.
Where [7] appears, read: Homo sapiens, Loratadine μM r5-r13: 0,0.2,0.41,0.82,1.6,3.3,6.5,13,26.
Where [8] appears, read: Homo sapiens, Thiethylperazine Maleate μM r5-r13: 0,0.2,0.39,0.78,1.6,3.1,6.3,13,25.

“And” between values parts separate entries of the source, which are not always exact repeats. Equal entries are not always repeated. Structures can show the parent of a compound that is named as a salt. Where two headings read alike, the source gives them in different places.

Protocol: Drugs were added to the indicated concentration. […] The plate was then washed again with 0.1% Tween 20/PBS. An HRP-luminescent substrate was added to each well, and the light intensity of each well was measured using a plate luminometer.

`CNCCC(Oc1ccc(C(F)(F)F)cc1)c1ccccc1` (racemic) [Fluoxetine HCl, (±)-N-methyl-3-phenyl-3-[((alpha),(alpha),(alpha)-trifluoro-p-tolyl)oxy]propylamine hydrochloride]: the inhibition at 0.9 µM (Homo sapiens, read-out: percent inhibition of TNFα secretion, Fluoxetine HCl 0.9 μM, Cyproheptadine HCl: 0/0.24/0.48/0.96/1.9/3.9/7.7/15/31 μM) was -1.1%. Besides, the inhibition at 14 µM (Homo sapiens, read-out: percent inhibition of TNFα secretion, Fluoxetine HCl 14 μM, Cyproheptadine HCl: 0/0.24/0.48/0.96/1.9/3.9/7.7/15/31 μM) came to 16%. Further, the inhibition at 29 µM (Homo sapiens, read-out: percent inhibition of TNFα secretion, Fluoxetine HCl 29 μM, Cyproheptadine HCl: 0/0.24/0.48/0.96/1.9/3.9/7.7/15/31 μM) was 41%. Besides, the “percent inhibition of TNFα secretion” value (Promethazine HCl 0 μM, Fluoxetine HCl μM r5-r13: 0,0.23,0.45,0.9,1.8,3.6,7.2,14,29, hydrochloride) was 1.71% and −2.67% and 4.37% and 2.89% and −0.34% and −0.46% and −0.103% and 4.12%.

As to `Clc1ccc2c(c1)C(N1CCNCC1)=Nc1ccccc1O2` [Amoxapine, amoxapine], under setting [1], the inhibition at 0.2 µM came to 4.3%, the inhibition at 0.4 µM was 13%, the inhibition at 0.8 µM was found to be 20% and the inhibition at 13 µM stood at 80%. In addition, the inhibition at 25 µM under setting [1] stood at 92%. Besides, under setting [2], the inhibition at 0.2 µM is 3.5%, the inhibition at 0.4 µM turned out to be 9.8%, the inhibition at 0.8 µM came to 17% and the inhibition at 13 µM was determined as 85%. For the same molecule, the inhibition at 25 µM under setting [2] was found to be 94%. Under setting [3], the inhibition at 0.2 µM is 7.52%, the inhibition at 0.4 µM amounted to 11.2%, the inhibition at 0.8 µM is 22.2% and the inhibition at 13 µM came to 83.7%. Also, the inhibition at 25 µM under setting [3] was found to be 88.2%. Under setting [4], the inhibition at 0.2 µM stood at 12%, the inhibition at 0.4 µM was 12%, the inhibition at 0.8 µM worked out at 24% and the inhibition at 13 µM came out at 74%. The inhibition at 25 µM under setting [4] worked out at 83%.

Take `CN(C)CCOC(c1ccccc1)c1ccc(Br)cc1` (stereo not shown) [Bromodiphenhydramine HCl, bromodiphenhydramine]: the inhibition at 14 µM (Homo sapiens, read-out: percent inhibition of TNFα secretion, Bromodiphenhydramine HCl 14 μM, Fluoxetine HCl μM: 0/0.23/0.45/0.9/1.8/3.6/7.2/14/29) amounted to 39%. Moreover, the inhibition at 27 µM (Homo sapiens, read-out: percent inhibition of TNFα secretion, Bromodiphenhydramine HCl 27 μM, Fluoxetine HCl μM: 0/0.23/0.45/0.9/1.8/3.6/7.2/14/29) was determined as 65.2%. Also, the “percent inhibition of TNFα secretion” value (Nortryptyline HCl 0 μM (Bromodiphenhydramine HCl alone), Bromodiphenhydramine HCl μM: 0/0.21/0.43/0.85/1.7/3.4/6.8/14/27) is −15.

`Clc1ccc(Cn2c(CN3CCCC3)nc3ccccc32)cc1` [Clemizole HCl, clemizole]: the inhibition at 14 µM (Homo sapiens, read-out: percent inhibition (dose matrix), Table 96, Clemizole HCl 14 μM, Amoxapine 0-25 μM) is -11.9%; the inhibition at 14 µM (Homo sapiens, read-out: percent inhibition (dose matrix), Table 97, Clemizole HCl 14 μM, Nortriptyline HCl 0-33 μM per row (c1)) came out at 5.46%; the inhibition at 14 µM (Homo sapiens, read-out: percent inhibition (dose matrix), Table 98, Clemizole HCl 14 μM, Paroxetine HCl 0-27 μM per row (c1)) amounted to 0.085%; the inhibition at 14 µM (Homo sapiens, read-out: percent inhibition (dose matrix), Table 103, Clemizole HCl 14 μM, Fluoxetine HCl 0-29 μM) stood at 9.15%; the inhibition at 14 µM (Homo sapiens, read-out: percent inhibition (dose matrix), Table 107, Clemizole HCl 14 μM, Desipramine HCl 0-32 μM per row (c1)) stood at 3.19%; the inhibition at 14 µM (Homo sapiens, read-out: percent inhibition (dose matrix), Table 108, Clemizole HCl 14 μM, Sertraline HCl 0-32 μM per row (c1)) was 4.65%. Moreover, the inhibition at 14 µM runs as follows: (Homo sapiens, read-out: percent inhibition of TNFα secretion, Clemizole HCl 14 μM, Amoxapine μM r5-r13: 0,0.2,0.4,0.8,1.6,3.2,6.4,13,25) 20%; (Homo sapiens, read-out: percent inhibition of TNFα secretion, Clemizole HCl 14 μM, Desipramine HCl: 0/0.25/0.5/1/2/4/8/16/32 μM) 26.4%; (Homo sapiens, read-out: percent inhibition of TNFα secretion, Clemizole HCl 14 μM, Fluoxetine HCl μM: 0/0.23/0.45/0.9/1.8/3.6/7.2/14/29) 26.1%; (Homo sapiens, read-out: percent inhibition of TNFα secretion, Clemizole HCl 14 μM, Paroxetine HCl μM r5-r13: 0,0.21,0.42,0.83,1.7,3.3,6.7,13,27) 22.4%; (Homo sapiens, read-out: percent inhibition of TNFα secretion, Clemizole HCl 14 μM, Sertraline HCl by grid row r5-r13: 0/0.25/0.49/0.99/2/4/7.9/16/32 μM) 24.5%. Besides, the inhibition at 28 µM is, setting by setting: (Homo sapiens, read-out: percent inhibition (dose matrix), Table 96, Clemizole HCl 28 μM, Amoxapine 0-25 μM) 0.658%; (Homo sapiens, read-out: percent inhibition (dose matrix), Table 97, Clemizole HCl 28 μM, Nortriptyline HCl 0-33 μM per row (c1)) 19.5%; (Homo sapiens, read-out: percent inhibition (dose matrix), Table 98, Clemizole HCl 28 μM, Paroxetine HCl 0-27 μM per row (c1)) -7.43%; (Homo sapiens, read-out: percent inhibition (dose matrix), Table 103, Clemizole HCl 28 μM, Fluoxetine HCl 0-29 μM) 9.27%; (Homo sapiens, read-out: percent inhibition (dose matrix), Table 107, Clemizole HCl 28 μM, Desipramine HCl 0-32 μM per row (c1)) 14.9%; (Homo sapiens, read-out: percent inhibition (dose matrix), Table 108, Clemizole HCl 28 μM, Sertraline HCl 0-32 μM per row (c1)) 16.9%. Further, the inhibition at 28 µM is, setting by setting: (Homo sapiens, read-out: percent inhibition of TNFα secretion, Clemizole HCl 28 μM, Amoxapine μM r5-r13: 0,0.2,0.4,0.8,1.6,3.2,6.4,13,25) 42.5%; (Homo sapiens, read-out: percent inhibition of TNFα secretion, Clemizole HCl 28 μM, Desipramine HCl: 0/0.25/0.5/1/2/4/8/16/32 μM) 41.4%; (Homo sapiens, read-out: percent inhibition of TNFα secretion, Clemizole HCl 28 μM, Fluoxetine HCl μM: 0/0.23/0.45/0.9/1.8/3.6/7.2/14/29) 34.1%; (Homo sapiens, read-out: percent inhibition of TNFα secretion, Clemizole HCl 28 μM, Paroxetine HCl μM r5-r13: 0,0.21,0.42,0.83,1.7,3.3,6.7,13,27) 42.1%; (Homo sapiens, read-out: percent inhibition of TNFα secretion, Clemizole HCl 28 μM, Sertraline HCl by grid row r5-r13: 0/0.25/0.49/0.99/2/4/7.9/16/32 μM) 43.3%. Further, the “inhibition of TNFα secretion” value (prednisolone […], clemizole HCl r5-r13: 0,0.22,0.43,0.86,1.7,3.5,6.9,14,28 μM) came to 28.

Take `OCCN(CCO)c1nc(N2CCCCC2)c2nc(N(CCO)CCO)nc(N3CCCCC3)c2n1` [Dipyridamole]: the inhibition at 0.3 µM is, setting by setting: under setting [5], 0.92%; under setting [6], -0.27%; under setting [7], 9.6%; under setting [8], 7%. Moreover, the inhibition at 19 µM under setting [5] came to 71%, the inhibition at 19 µM under setting [6] stood at 63%, the inhibition at 19 µM under setting [7] was determined as 70% and the inhibition at 19 µM under setting [8] amounted to 71%.

In general, inhibition refers to the drop in the measured response relative to a control, in per cent.
